This is an account of results in ChEMBL document CHEMBL5576040, “Dipeptide-catalysed Michael reaction under physiological conditions: Examination of potential bioorthogonality” (Bioorg Med Chem, 2024).

Structures are written as SMILES.

For orientation: IC50 means the concentration needed to halve the response being measured.

The test system of the assay is A2780. In words: Anticancer activity against human A2780 cells assessed as inhibition of cell growth measured after 48 hrs by MTT assay. The format is functional, cell-based. The note with it: A2780, 48 h. A general note: Tetrazolium dyes change colour on reduction, which living cells bring about.

Consider `O=C1CCCC[C@H]1[C@@H](C[N+](=O)[O-])c1ccccc1`, for which the IC50 was above 100 µM.
Take `O=C1CCCC[C@H]1[C@H](c1ccccc1)C(F)[N+](=O)[O-]` (some centres not stated): the concentration for half-maximal inhibition (IC50) amounted to 89 µM.
